The text below walks through data of patent US4578380A, “5H-[1]benzopyrano[2,3-d]pyrimidine derivatives useful for controlling lesions of the gastric and duodenal mucous membranes” (Warner-Lambert Company, priority 1983, dated 1986).

One data set relates to Gastric Acid Secretion. Description: Test for the Inhibition of the Gastric Acid Secretion According to Ghosh and Schild. The note with it: rat. It counts as in vivo, male rats (Sprague Dawley SIV 50). On the procedure: 3. Test for the Inhibition of the Gastric Acid Secretion According to Ghosh and Schild (Brit. J. Pharmacol. 13 pp 54-61 (1958) The test animals were male rats (Sprague Dawley SIV 50) weighing between 300-450 g. The animals were kept fasting 24 hours before starting the test, water being available ad libitum. The animals were anesthetized with 1.25 g/kg urethane IP. Trachea, vena jugularis, arteria carotis, and oesophagus were exposed, and a fistula placed at the pylorus. Via an oesophagus tube the stomach was perfused with 1/4000 N NaOH at a flow rate of 3 ml/min. By means of the NaOH perfusion the pH of the gastric juice was adjusted to about pH 7 and continuously measured with a measuring electrode. Via the vena jugularis the acid-stimulating substance (carbachol 0.25 μg/kg/min or pentagastrin 1 μg/kg/min) was infused.

The subject of data set [1] is Indomethacin-Induced Ulcer. Description: Indomethacin-Induced Ulcer. The format is in vivo, male rats (Sprague Dawley SIV 50). As to conditions: rat. On the procedure:
1. Indomethacin-Induced Ulcer Test animals were male rats (Sprague Dawley SIV 50) weighing between 150-200 g. The animals were kept fasting 24 hours before starting the test, drinking water being available ad libitum. The animals were alloted to three groups, each group comprising ten rats. […] Five hours following administration the animals were killed with CO2 gas, the stomachs removed and opened along the greater curvature. After measuring the pH value the stomach was tested for ulcerations under a stereo magnifying glass. The method described by Chaumontet, et al. Arzneimittelforschung/Drug Research 28 (II) pp 2119-2121 (1978) was used to rate the ulcerations and calculate the ulcer index (UI). The effect of the substances was rendered as the percentage inhibition of the ulcers caused by indomethacin in comparison to the untreated reference group.

A further data set relates to gastric mucous membrane. The note with it: cited from earlier work.
A further data set has as its system Cold-Stress Ulcer. As to the kind of experiment: Cold-Stress Ulcer. It counts as in vivo, male rats (Sprague Dawley SIV 50). As to conditions: rat. The method, then: 2. Cold-Stress Ulcer Test animals were male rats (Sprague Dawley SIV 50) weighing between 110 and 150 g. The animals were kept fasting 24 hours before starting the test, drinking water being available ad libitum. […] Immediately after administration of the substances the animals were anesthetized with […] on their backs, fixed with adhesive tapes to wooden boards. Thus rendered immobile the animals were put into a permanently lit room, ambient temperature +15° C., relative humidity 50-60%, for 14 hours. After this time of exposure the rats were killed with CO2, the stomachs removed and opened along the greater curvature. After measuring the pH value the gastric mucosa was tested for ulcerations under a stereo magnifying glass. The ulcerations were rated and the ulcer index (UI) calculated as described for test 1, the effect of the substances being expressed as the percentage inhibition of the ulcer formation in comparison to the untreated control group.

Setting [2] is: 250 mg/kg (dose column: i.g.; method: duodenal catheter).
The mark [3] stands for this setting: 125 mg/kg (dose column: i.g.; method: duodenal catheter).

Regarding `Cc1ccc(-c2nc3c(c(SCCCN4CCOCC4)n2)Cc2ccccc2O3)cc1` [Compound (26), 2-(4-methylphenyl)-4-(3-morpholinopropylthio)-5H-[1]benzopyrano[2,3-d]pyrimidine], in the data set on Gastric Acid Secretion (setting [2]), the “Antisecretion (Gosh + Schild Model)” value was “No effect”. Further, in data set [1] (250 mg/kg i.g.), the “Protective Action in %, "Indomethacin" ulcer model” value was determined as 50%.
Take `CN/C(=N/CCSCc1nc[nH]c1C)NC#N` [Cimetidine, reference compound]: the undesired side effects entry in the data set on gastric mucous membrane (general statement in therapy) is “undesired CNS and other side effects”. The “changes of the gastric mucous membrane / relapse ulcers” value in the data set with gastric mucous membrane (long-term treatment, following discontinuation) is on record as “changes of the gastric mucous membrane found under long-term treatment”. Moreover, in the data set on Gastric Acid Secretion (5 mg/kg i.v., after 35 min), the “Antisecretion (Gosh + Schild Model): pH reached” value was found to be 7.9 pH. Moreover, in the data set on Gastric Acid Secretion (5 mg/kg i.v.), the “Antisecretion (Gosh + Schild Model): time after which pH 7.9 was reached” value is 35 min. Besides, the “Protective Action in %, "Stress" ulcer model” value with Cold-Stress Ulcer (100 mg/kg i.g.) came out at 53%; with Cold-Stress Ulcer (200 mg/kg i.g.), 54%. For the same compound, the “Protective Action in %, "Indomethacin" ulcer model” value was 80% in data set [1] (100 mg/kg i.g.), 89% in data set [1] (200 mg/kg i.g.) and 39% in data set [1] (3 × 100 mg/kg i.g.).
In the case of `CNCCCSc1nc(-c2ccc(C)cc2)nc2c1Cc1ccccc1O2` [Compound (27a), 4-(3-methylaminopropylthio)-2-(4-methylphenyl)-5H-[1]benzopyrano[2,3-d]pyrimidine], the “Antisecretion (Gosh + Schild Model)” value in the data set with Gastric Acid Secretion (setting [2]) is listed as “No effect”. The “Protective Action in %, "Indomethacin" ulcer model” value in data set [1] (250 mg/kg i.g.) stood at 94%.
As for `CN(C)CCCSc1nc(-c2ccccc2)nc2c1Cc1ccccc1O2` [Compound (1), 4-(3-dimethylaminopropylthio)-2-phenyl-5H-[1]benzopyrano[2,3-d]pyrimidine], the “Antisecretion (Gosh + Schild Model)” value in the data set with Gastric Acid Secretion (setting [3]) and with Gastric Acid Secretion (setting [2]) was “No effect” each time. Besides, the “Protective Action in %, "Stress" ulcer model” value in the data set with Cold-Stress Ulcer (125 mg/kg i.g.) was 70%; in the data set with Cold-Stress Ulcer (250 mg/kg i.g.), 86%. For the same compound, the “Protective Action in %, "Indomethacin" ulcer model” value stood at 88% in data set [1] (125 mg/kg i.g.) and 95% in data set [1] (250 mg/kg i.g.).
`Cc1ccc(-c2nc3c(c(SCCCN(C)C)n2)Cc2ccccc2O3)cc1` [Compound (16)]: the “Antisecretion (Gosh + Schild Model)” value with Gastric Acid Secretion (setting [3]) and in the data set with Gastric Acid Secretion (setting [2]) was “No effect” in each case. The “Protective Action in %, "Stress" ulcer model” value in the data set on Cold-Stress Ulcer (125 mg/kg i.g.) is 72%. Also, the “Protective Action in %, "Indomethacin" ulcer model” value was found to be 83% in data set [1] (125 mg/kg i.g.) and 99.5% in data set [1] (250 mg/kg i.g.).
